{"source": "PubChem BioAssay AID687005", "about": "(Broad Institute, 2013)", "note": "Records with an inconclusive call do not appear. Calls of active or inactive are those of the source.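 Rule for the calls: active = Compounds that reduce signal, with fitted half-maximal dose at or under twice the top valid tested dose; inconclusive = Poor fit, or flat curve losing 30 to 70% of signal; inactive = Potency past limit, flat within 30%, or opposite direction.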"}
{"test": "HEK293T cell cytotoxicity, dose response, cytotoxicity control, ATP luminescence, cherry-pick samples (AID 687005)", "conditions": "HEK293T viability, ATP luminescence (CellTiter-Glo), 48 h; at 23.5 µM (top of the series)"}
{"smiles": "C[C@@H]1CCCCO[C@@H](CN(C)Cc2ccc3c(c2)OCO3)[C@@H](C)CN([C@H](C)CO)C(=O)c2cc(NS(=O)(=O)c3ccc(F)cc3)ccc2O1", "activity change, negative = cytotoxicity": "-35.2% (inactive)"}
{"smiles": "COc1ccc(CN(C)C[C@H]2OCCCC[C@@H](C)Oc3ccc(NC(=O)c4ccccc4)cc3C(=O)N([C@H](C)CO)C[C@@H]2C)cc1", "activity change, negative = cytotoxicity": "-10.4% (inactive)"}
{"test": "HEK293T cell cytotoxicity, dose response, cytotoxicity control, ATP luminescence, cherry-pick samples (AID 687005)", "conditions": "HEK293T viability, ATP luminescence (CellTiter-Glo), 48 h; at 26 µM (top of the series)"}
{"smiles": "CC(=O)c1cccc(NC(=S)NC2CCCCC2)c1", "activity change, negative = cytotoxicity": "-7.11% (inactive)"}
{"smiles": "CCCNC(=O)C[C@H]1CC[C@H]2[C@@H](COC[C@@H](O)CN2S(=O)(=O)c2ccc(Oc3ccccc3)cc2)O1", "activity change, negative = cytotoxicity": "-8.05% (inactive)"}
{"smiles": "CCC(C(=O)Nc1c(C)cc(C)cc1C)N1CCCCCC1", "note": "(stereo not drawn)", "activity change, negative = cytotoxicity": "18.8% (inactive)"}
{"smiles": "CC=Cc1ccc2n(c1=O)C[C@H]1[C@H](CO)[C@@H](C(=O)N3CCOCC3)N(CC3CC3)[C@@H]21", "note": "(mixture of isomers)", "activity change, negative = cytotoxicity": "2.31% (inactive)"}
{"smiles": "CNC[C@H]1OCCCC[C@H](C)Oc2ccc(NC(=O)Cc3ccccc3)cc2C(=O)N([C@H](C)CO)C[C@@H]1C", "activity change, negative = cytotoxicity": "-17.1% (inactive)"}
{"smiles": "Cc1ccc(S(=O)(=O)N(C)C[C@H]2Oc3c(cccc3N(C)C)C(=O)N([C@@H](C)CO)C[C@H]2C)cc1", "activity change, negative = cytotoxicity": "-16.9% (inactive)"}
{"smiles": "C[C@@H]1CN([C@H](C)CO)C(=O)c2cccc(NC(=O)C3CC3)c2O[C@H]1CN(C)Cc1ccc(C(=O)O)cc1", "activity change, negative = cytotoxicity": "-12.7% (inactive)"}
{"smiles": "Cc1ccc(N(C(=O)C2CCC(=O)N2)C2(C(=O)NC3CCCC3)CCCCC2)cc1", "note": "(stereo not drawn)", "activity change, negative = cytotoxicity": "-43.5% (inactive)"}
{"smiles": "COc1cccc(NC(=S)NC(=O)Cc2ccc(Cl)cc2)c1", "activity change, negative = cytotoxicity": "-6.68% (inactive)"}
{"smiles": "CCC(=O)N[C@@H]1C=C[C@H](CC(=O)NCC2CCCCC2)O[C@H]1CO", "activity change, negative = cytotoxicity": "-35.2% (inactive)"}
{"smiles": "Cc1ccc(CSc2ncnc3c2cnn3-c2ccc(C)cc2)cc1", "activity change, negative = cytotoxicity": "-28.8% (inactive)"}
{"smiles": "C[C@H](CO)N1C[C@H](C)[C@@H](CN(C)C(=O)Nc2cccc3ccccc23)Oc2c(cccc2N(C)C)C1=O", "activity change, negative = cytotoxicity": "49.5% (inactive)"}
{"smiles": "CC=Cc1ccc2n(c1=O)C[C@@H]1[C@@H](CO)[C@H](C(=O)N3CCc4ccccc4C3)N(C(=O)C3CC3)[C@H]21", "note": "(mixture of isomers)", "activity change, negative = cytotoxicity": "-3.28% (inactive)"}
{"smiles": "C[C@H]1CN([C@@H](C)CO)C(=O)Cc2cc(NS(=O)(=O)c3ccc(F)cc3)ccc2O[C@H]1CN(C)S(=O)(=O)c1ccc(F)cc1", "activity change, negative = cytotoxicity": "6.2% (inactive)"}
{"smiles": "COc1ccccc1C#Cc1ccc2c(c1)O[C@H](CN(C)C(C)=O)[C@H](C)CN([C@@H](C)CO)S2(=O)=O", "activity change, negative = cytotoxicity": "-7.15% (inactive)"}
{"smiles": "CC(C)NC(=O)N(C)C[C@@H]1OCCCC[C@H](C)Oc2ccc(NC(=O)Cc3ccccc3)cc2C(=O)N([C@H](C)CO)C[C@H]1C", "activity change, negative = cytotoxicity": "47.6% (inactive)"}
{"smiles": "O=S1(=O)CCC(N=Cc2cc(Br)ccc2O)C1", "note": "(stereo not drawn)", "activity change, negative = cytotoxicity": "37.7% (inactive)"}
{"smiles": "CO[C@H]1CN(C)C(=O)c2ccc(NC(C)=O)cc2OC[C@H](C)N(C(=O)c2ccncc2)C[C@@H]1C", "activity change, negative = cytotoxicity": "-20% (inactive)"}
{"smiles": "C[C@H](CO)N1C[C@H](C)[C@H](CN(C)Cc2cccnc2)Oc2ncc(C#CC3(O)CCCC3)cc2C1=O", "activity change, negative = cytotoxicity": "-14.5% (inactive)"}
{"smiles": "CO[C@@H]1CN(C)C(=O)c2ccc(NC(=O)C3CC3)cc2OC[C@H](C)N(Cc2ccc(F)cc2)C[C@H]1C", "activity change, negative = cytotoxicity": "-10.4% (inactive)"}
{"smiles": "C[C@@H]1CN([C@@H](C)CO)C(=O)Cc2cc(NC(=O)Nc3cccc4ccccc34)ccc2O[C@@H]1CN(C)Cc1ccc(C(=O)O)cc1", "activity change, negative = cytotoxicity": "30.4% (inactive)"}
{"smiles": "COc1cccc(S(=O)(=O)N(C)C[C@@H]2Oc3ncc(-c4cccc(F)c4)cc3C(=O)N([C@H](C)CO)C[C@@H]2C)c1", "activity change, negative = cytotoxicity": "-18.4% (inactive)"}
{"smiles": "N#C[C@@H]1[C@@H](c2ccccc2)[C@@H](CO)N1C(=O)Cc1ccccc1", "activity change, negative = cytotoxicity": "-0.39% (inactive)"}
{"smiles": "Cc1noc(C)c1S(=O)(=O)Nc1ccc2c(c1)CC(=O)N([C@@H](C)CO)C[C@H](C)[C@@H](CN(C)S(=O)(=O)c1cn(C)cn1)O2", "activity change, negative = cytotoxicity": "50.4% (inactive)"}
{"smiles": "Cc1ccc(NC(=O)[C@H](C)NC(=O)C2CCN(C(=O)[C@@H](N)C(C)C)CC2)cc1", "activity change, negative = cytotoxicity": "-1.97% (inactive)"}
{"smiles": "Cc1noc(C)c1NC(=O)N(C)C[C@H]1Oc2ccc(NC(=O)C3CC3)cc2CC(=O)N([C@@H](C)CO)C[C@H]1C", "activity change, negative = cytotoxicity": "0.766% (inactive)"}
{"smiles": "C[C@H](CO)N1C[C@H](C)[C@@H](CN(C)Cc2ccncc2)OCCCC[C@H](C)Oc2ccc(NC(=O)NC3CCCCC3)cc2C1=O", "activity change, negative = cytotoxicity": "-0.008% (inactive)"}
{"smiles": "C/C=C/c1ccc([C@@H]2[C@@H](C#N)N(S(=O)(=O)c3cccc(F)c3)[C@@H]2CO)cc1", "activity change, negative = cytotoxicity": "4.72% (inactive)"}
{"smiles": "Cc1noc(C)c1S(=O)(=O)Nc1ccc2c(c1)C(=O)N([C@H](C)CO)C[C@@H](C)[C@H](CN(C)Cc1ccccc1)OCCCC[C@H](C)O2", "activity change, negative = cytotoxicity": "-2.05% (inactive)"}
{"smiles": "Cc1ccc(S(=O)(=O)N2C[C@@H](O)COC[C@@H]3O[C@H](CC(=O)NCc4ccc5c(c4)OCO5)CC[C@H]32)cc1", "activity change, negative = cytotoxicity": "46.9% (inactive)"}
{"smiles": "CCC(=O)Nc1ccc2c(c1)C(=O)N(C)C[C@@H](OC)[C@H](C)CN[C@@H](C)CO2", "activity change, negative = cytotoxicity": "4.18% (inactive)"}
{"smiles": "CNC(=O)C[C@H]1CC[C@H]2[C@H](COc3ccc(NC(=O)Nc4ccccc4)cc3C(=O)N2C)O1", "activity change, negative = cytotoxicity": "-20.5% (inactive)"}
{"smiles": "CCC(C)(NC=O)C(=O)Nc1c(C)cccc1C", "note": "(stereo not drawn)", "activity change, negative = cytotoxicity": "-37.8% (inactive)"}
{"smiles": "COCC(=O)N(C)C[C@@H]1Oc2ncc(C#CCC3CCCC3)cc2C(=O)N([C@@H](C)CO)C[C@H]1C", "activity change, negative = cytotoxicity": "1.81% (inactive)"}
{"smiles": "COCCNC(=O)C[C@@H]1CC[C@@H]2[C@H](COC[C@@H](O)CN2S(=O)(=O)c2ccccc2C)O1", "activity change, negative = cytotoxicity": "31.5% (inactive)"}
{"smiles": "CCNC(=O)CN(c1ccc(Cl)cc1)S(=O)(=O)c1ccccc1", "activity change, negative = cytotoxicity": "4.12% (inactive)"}
{"smiles": "Cc1cccc(NC(=S)NN(Cc2ccccc2)c2ccccc2)c1C", "activity change, negative = cytotoxicity": "25.3% (inactive)"}
{"smiles": "CCCNC(=O)Nc1ccc2c(c1)C(=O)N(C)C[C@@H](OC)[C@@H](C)CN(C(=O)CC)[C@H](C)CO2", "activity change, negative = cytotoxicity": "-2.92% (inactive)"}
{"smiles": "CO[C@H]1CC[C@H]2CCOc3c(C#N)cccc3C(=O)N(C)C[C@@H](C)C(=O)N(C)C[C@H]1O2", "activity change, negative = cytotoxicity": "-16.5% (inactive)"}
{"smiles": "O=C(Nc1ccc(F)cc1)N1C[C@H]2[C@@H](c3ccccc31)[C@@H](CO)N2Cc1cocn1", "activity change, negative = cytotoxicity": "-16.4% (inactive)"}
{"smiles": "C[C@@H]1CN([C@@H](C)CO)C(=O)c2cc(NC(=O)C3CC3)ccc2O[C@H]1CN(C)Cc1ccc2c(c1)OCO2", "activity change, negative = cytotoxicity": "9.22% (inactive)"}
{"test": "HEK293T cell cytotoxicity, dose response, cytotoxicity control, ATP luminescence, cherry-pick samples (AID 687005)", "conditions": "HEK293T viability, ATP luminescence (CellTiter-Glo), 48 h; at 28.5 µM (top of the series)"}
{"smiles": "COC(=O)C1=C(C)N(Cc2ccc(F)cc2)C(=S)NC1c1ccccc1", "note": "(stereo not drawn)", "activity change, negative = cytotoxicity": "17.5% (inactive)"}
{"test": "HEK293T cell cytotoxicity, dose response, cytotoxicity control, ATP luminescence, cherry-pick samples (AID 687005)", "conditions": "HEK293T viability, ATP luminescence (CellTiter-Glo), 48 h; at 30 µM (top of the series)"}
{"smiles": "COC(=O)C1=C(C)N(CC(C)C)C(=S)NC1c1ccc(Cl)cc1", "note": "(stereo not drawn)", "activity change, negative = cytotoxicity": "-20.8% (inactive)"}
{"test": "HEK293T cell cytotoxicity, dose response, cytotoxicity control, ATP luminescence, cherry-pick samples (AID 687005)", "conditions": "HEK293T viability, ATP luminescence (CellTiter-Glo), 48 h; at 38 µM (top of the series)"}
{"smiles": "CCCC(C)(C)C(=O)N1CCC1(C)C(=O)Nc1ccc(C)cc1", "note": "(stereo not drawn)", "activity change, negative = cytotoxicity": "-11.3% (inactive)"}
{"test": "HEK293T cell cytotoxicity, dose response, cytotoxicity control, ATP luminescence, cherry-pick samples (AID 687005)", "conditions": "HEK293T viability, ATP luminescence (CellTiter-Glo), 48 h; at 42 µM (top of the series)"}
{"smiles": "Cc1cccc(C)c1NC(=O)C1NC(=O)CC1c1ccccc1", "note": "(stereo not drawn)", "activity change, negative = cytotoxicity": "0.826% (inactive)"}
{"test": "HEK293T cell cytotoxicity, dose response, cytotoxicity control, ATP luminescence, cherry-pick samples (AID 687005)", "conditions": "HEK293T viability, ATP luminescence (CellTiter-Glo), 48 h; at 46 µM (top of the series)"}
{"smiles": "CCCC(=O)N1CCC1(C)C(=O)Nc1ccc(C)cc1", "note": "(stereo not drawn)", "activity change, negative = cytotoxicity": "-12.7% (inactive)"}
